Data from patent publication US12441730B2, “PRMT5 inhibitors” (Merck Sharp & Dohme LLC, priority 2019, dated 2025).
Where two headings read alike, the source gives them in different places.

Tests used:
[1] = target: T1, Full-length (FL)-PRMT5-MEP50 enzyme complex (Homo sapiens, UniProt O14744); test: PRMT5-MEP50 Enzyme Methylation Assay (Version A); assay type: biochemical
T1 construct: Full-length (FL)-PRMT5-MEP50 enzyme complex (recombinant proteins from baculovirus-transfected Sf21 cells: FL-PRMT5; MW=73837 kDa and FL-MEP50; MW=38614); made in house; host or cells: baculovirus-transfected Sf21 cells
Experimental: PRMT5-MEP50 Enzyme Methylation Assay (Version A)
PRMT5-MEP50 biochemical assay is a direct measurement of the methylation activity of the enzyme complex on a short peptide substrate derived from the N-terminus of H4 histone. Methylation experiment was performed with recombinant PRMT5-MEP50 protein complex. The assessment of inhibitory effect of small molecules was measured by the effectiveness of the compounds to inhibit this reaction (EC50).
In this assay, the potency (EC50) of each compound was determined from a twenty-point (1:2 serial dilution; top compound concentration of 100000 nM) titration curve using the following outlined procedure. To each well of a white ProxiPlus 384 well-plate, 100 nL of compound (1% DMSO in final assay volume of 10 μL) was dispensed, followed by the addition of 8 μL of 1× assay buffer (50 mM Bicine pH 8.0, 1 mM DTT, 0.004% Tween20, 0.01% BSA) containing 1.25 nM of Full-length (FL)-PRMT5-MEP50 enzyme complex (recombinant proteins from baculovirus-transfected Sf21 cells: FL-PRMT5; MW=[…] and FL-MEP50; MW=38614) and 1 μL of 150 μM S-(5′-Adenosyl)-L-Methionine Chloride (SAM). A plate were sealed and placed in a 37° C. humidified chamber for a 60 minutes pre-incubation with compound. Subsequently, each reaction was initiated by the addition of 1 μL 1× assay buffer containing 750 nM biotinylated H4R3(Me1) peptide. The final reaction in each well of 10 μL consists of 1.0 nM PRMT5-MEP50, 75 nM biotinylated-peptide, and 15 μM SAM. Methylation reactions were allowed to proceed for 150 minutes in a sealed plate at 37° C. Reactions were immediately quenched by the addition of 1 μL of 5% formic acid. A plate was then frozen and shipped to SAMDI™ Tech Inc. to determine the percent conversion from H4R3(Me1) to H4R3(Me2). Dose-response curves were generated by plotting percent effect (% product conversion; Y-axis) vs. Log 10 compound concentrations (X-axis). EC50 values were determined by non-linear regression according to models for either sigmoidal (4 parameters) or biphasic (7 parameters) dose-response curves.

[2] = system: symmetric dimethylation of arginine (SDMA) of PRMT5 substrates in MCF-7 cells; test: PRMT5 Cell Target Engagement (TE) Assay; assay type: cell-based; conditions: 3 days treatment, SDMA high content imaging
Excerpt: PRMT5 Cell Target Engagement (TE) Assay
The PRMT5 TE assay is a biomarker assay for identifying compounds that inhibit symmetric dimethylation of arginine (SDMA) of PRMT5 substrates. The following substrates have been reported for PRMT5: histone H2A and H4 R3, Histone H3 R2, Histone H3 R8, spliceosome Sm proteins, ribosomal protein RPS10, p53, FEN1, nucleoplasmin, nucleolin, EGFR and EBNA. The assay focuses on detecting symmetrically dimethylated nuclear proteins using high content imaging technology. Detection of the expression of symmetrically dimethylated nuclear proteins is through a mixture of primary rabbit monoclonal antibodies to SDMA (CST 13222), which in turn recognized by an Alexafluor 488 dye-conjugated anti-rabbit IgG secondary antibody. The IN Cell Analyzer 2200 or Opera-Phenix measures nuclear Alexafluor 488 fluorescent dye intensity that is directly related to the level of expression of symmetrically dimethylated nuclear proteins at the single cell level. Nuclear AF488 dye intensities are compared to the mean value for DMSO treated cells (MIN) to report percent of inhibition for each compound-treated well.
In this assay, the cell potency (EC50) of each compound was determined from a ten point (1:3 serial dilution; top compound concentration of 10000 nM) titration curve using the following outlined procedure. Each well of a BD falcon collagen coated black/clear bottom 384-well plate was seeded with 4000 MCF-7 cells in 30 μl media and allowed to attach for 5 h. Media is ATCC-formulated Eagle's Minimum Essential Medium, Catalog No. 30-2003. To make the complete growth medium, the following components were added to the base medium: 0.01 mg/mL human recombinant insulin; fetal bovine serum to a final concentration of 10%. Additional 30 μl of media containing 2× compounds were added to each well. Cells were treated for 3 days in 37° C. CO2 incubator. On day 3, cells were fixed with Cytofix, permeabilized with 0.4% Triton-X-100/Cytofix, and washed with D-PBS without Ca/Mg. Cells were blocked with Licor Odessey blocking reagent for 1 h at room temperature, followed by incubation with anti-SDMA (1:1000) antibody at 4° C. overnight. 1° antibody was removed, followed by three washings with DPBS without Ca/Mg and 0.05% Tween20. Hoechst (5 μg/mL), Cell Mask deep stain (1:2000) and Alexa488-conjugated goat anti-rabbit IgG (2 μg/mL) was added for 1 h at room temperature. A final washing step (three washes) was performed before sealing plate for imaging on In Cell Analyzer 2200 or Opera-Phenix. Images from analyzer were uploaded to Columbus (at WP or BOS) for image analysis. IC50 values were determined by 4 parameters robust fit of percent fluorescence units vs. (Log10) compound concentrations.

[3] = second value of 7 parameter biphasic fit, read-out: Enzyme Methylation Assay Version A (EC50 2)
[4] = single EC50 = 4 parameter single site sigmoidal fit, EC50 1 = first value of 7 parameter biphasic fit, read-out: Enzyme Methylation Assay Version A (EC50 or EC50 1)

T1 sequence (O14744 whole entry): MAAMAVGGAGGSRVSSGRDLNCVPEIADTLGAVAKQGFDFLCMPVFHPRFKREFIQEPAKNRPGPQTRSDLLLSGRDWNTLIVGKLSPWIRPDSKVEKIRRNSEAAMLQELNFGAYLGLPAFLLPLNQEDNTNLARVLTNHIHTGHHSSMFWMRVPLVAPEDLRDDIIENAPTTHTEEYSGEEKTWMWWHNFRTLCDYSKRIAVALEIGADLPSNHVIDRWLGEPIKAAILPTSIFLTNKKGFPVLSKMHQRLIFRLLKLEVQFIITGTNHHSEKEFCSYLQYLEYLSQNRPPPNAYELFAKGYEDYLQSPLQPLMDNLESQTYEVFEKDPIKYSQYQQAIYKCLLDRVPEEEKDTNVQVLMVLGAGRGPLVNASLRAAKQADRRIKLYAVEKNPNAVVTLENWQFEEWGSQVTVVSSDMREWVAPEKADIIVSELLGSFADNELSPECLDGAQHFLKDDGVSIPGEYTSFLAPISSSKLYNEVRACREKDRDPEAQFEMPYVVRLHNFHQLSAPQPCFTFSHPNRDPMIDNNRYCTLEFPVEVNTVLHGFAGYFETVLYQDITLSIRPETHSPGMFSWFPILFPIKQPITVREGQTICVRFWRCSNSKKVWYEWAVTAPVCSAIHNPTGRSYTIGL
T1 sequence (Q9BQA1 whole entry partner): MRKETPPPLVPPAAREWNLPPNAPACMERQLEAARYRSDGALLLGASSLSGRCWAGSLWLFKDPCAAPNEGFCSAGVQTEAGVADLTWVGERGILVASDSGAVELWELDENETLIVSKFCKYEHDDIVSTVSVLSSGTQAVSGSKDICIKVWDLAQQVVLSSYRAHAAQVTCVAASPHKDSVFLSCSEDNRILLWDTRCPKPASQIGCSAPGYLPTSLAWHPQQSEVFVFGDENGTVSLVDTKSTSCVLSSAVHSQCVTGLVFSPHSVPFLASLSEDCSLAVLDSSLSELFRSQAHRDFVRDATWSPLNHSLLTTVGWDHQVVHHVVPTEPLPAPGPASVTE

Row | SMILES | EC50 [1, 3] [nM] | EC50 [1, 4] [nM] | EC50 [2] [nM] | EC50 ([2]; Homo sapiens, MCF7, 72 h) [nM]
1 | O=C(c1cn2cc(Br)nc(OCC3CCCO3)c2n1)N1CC[C@]2(Cc3ccccc3CN2)[C@H](O)C1 (single isomer, unassigned) [Example 100, (6-bromo-8-(((S or R)-tetrahydrofuran-2-yl)methoxy)imidazo[1,2-a]pyrazin-2-yl)((3R,3′R)-3′-hydroxy-1,4-dihydro-2H-spiro[isoquinoline-3,4′-piperidin]-1′-yl)methanone] | 60.6 | 0.266 | – | 4.13
2 | O=C(c1cn2cc(Br)nc(OCC3CCCO3)c2n1)N1CC[C@]2(Cc3ccccc3CN2)[C@H](O)C1 (single isomer, unassigned) [Example 101, (6-bromo-8-(((S or R)-tetrahydrofuran-2-yl)methoxy)imidazo[1,2-a]pyrazin-2-yl)((3R,3′R)-3′-hydroxy-1,4-dihydro-2H-spiro[isoquinoline-3,4′-piperidin]-1′-yl)methanone] | 56.2 | 0.294 | 7.02 | –
3 | CC(n1ccc(C(=O)N2CC[C@]3(Cc4ccccc4CN3)[C@H](O)C2)cc1=O)C(F)(F)F (single isomer, unassigned) [Example 102, 4-((3R,3′R)-3′-hydroxy-2,4-dihydro-1H-spiro[isoquinoline-3,4′-piperidin]-1′-ylcarbonyl)-1-((S or R)-1,1,1-trifluoropropan-2-yl)pyridin-2(1H)-one] | 34700 | 52.1 | 800 | –
4 | CC(n1ccc(C(=O)N2CC[C@]3(Cc4ccccc4CN3)[C@H](O)C2)cc1=O)C(F)(F)F (single isomer, unassigned) [Example 103, 4-((3R,3′R)-3′-hydroxy-2,4-dihydro-1H-spiro[isoquinoline-3,4′-piperidin]-1′-ylcarbonyl)-1-((R or S)1,1,1-trifluoropropan-2-yl)pyridin-2(1H)-one] | 80000 | 171 | 2860 | –
5 | CCC1Oc2ccc(C(=O)N3CC[C@]4(Cc5ccccc5CN4)[C@H](O)C3)cc2NC1=O (single isomer, unassigned) [Example 104, (2R or 2S)-2-ethyl-6-((3R,3′R)-3′-hydroxy-1,4-dihydro-2H-spiro[isoquinoline-3,4′-piperidine]-1′-carbonyl)-2H-benzo[b][1,4]oxazin-3(4H)-one] | 1410 | 1.44 | 83.1 | –
6 | CCC1Oc2ccc(C(=O)N3CC[C@]4(Cc5ccccc5CN4)[C@H](O)C3)cc2NC1=O (single isomer, unassigned) [Example 105, (2S or 2R)-2-ethyl-6-((3R,3′R)-3′-hydroxy-1,4-dihydro-2H-spiro[isoquinoline-3,4′-piperidine]-1′-carbonyl)-2H-benzo[b][1,4]oxazin-3(4H)-one] | 146 | 0.519 | 4.39 | –
7 | O=C1Nc2cc(C(=O)N3CC[C@]4(Cc5ccccc5CN4)[C@H](O)C3)ccc2OC1C1CC1 (single isomer, unassigned) [Example 106, (2R or 2S)-2-cyclopropyl-6-((3R,3′R)-3′-hydroxy-1,4-dihydro-2H-spiro[isoquinoline-3,4′-piperidine]-1′-carbonyl)-2H-benzo[b][1,4]oxazin-3(4H)-one] | 1010 | 0.43 | 36.8 | –
8 | O=C1Nc2cc(C(=O)N3CC[C@]4(Cc5ccccc5CN4)[C@H](O)C3)ccc2OC1C1CC1 (single isomer, unassigned) [Example 107, (2S or 2R)-2-cyclopropyl-6-((3R,3′R)-3′-hydroxy-1,4-dihydro-2H-spiro[isoquinoline-3,4′-piperidine]-1′-carbonyl)-2H-benzo[b][1,4]oxazin-3(4H)-one] | – | 0.272 | 6.67 | –
9 | CN1CC(C2CC2)Cn2cc(C(=O)N3CC[C@]4(Cc5ccccc5CN4)[C@H](O)C3)nc21 (single isomer, unassigned) [Example 139] | 767 | 8.19 | 212 | –
10 | CN1CC(C2CC2)Cn2cc(C(=O)N3CC[C@]4(Cc5ccccc5CN4)[C@H](O)C3)nc21 (single isomer, unassigned) [Example 142] | 1860 | 29.5 | 620 | –
11 | COCCN1CC(C2CC2)Cn2cc(C(=O)N3CC[C@]4(Cc5ccccc5CN4)[C@H](O)C3)nc21 (single isomer, unassigned) [Example 143] | – | 184 | – | 318
12 | COCCN1CC(C2CC2)Cn2cc(C(=O)N3CC[C@]4(Cc5ccccc5CN4)[C@H](O)C3)nc21 (single isomer, unassigned) [Example 144] | – | 65.9 | 173 | –

The remaining lines, values ahead:

Row | EC50 [1, 3] [nM] | EC50 [1, 4] [nM] | EC50 [2] [nM] | EC50 ([2]; Homo sapiens, MCF7, 72 h) [nM] | SMILES
13 | 147 | 0.427 | 7.8 | – | O=C(c1cn2cc(Br)nc(OC3CCOC3)c2n1)N1CC[C@]2(Cc3ccccc3CN2)[C@H](O)C1 (single isomer, unassigned) [Example 99, (6-bromo-8-(((S or R)(tetrahydrofuran-3-yl)oxy)imidazo[1,2-a]pyrazin-2-yl)((3R,3′R)-3′-hydroxy-1,4-dihydro-2H-spiro[isoquinoline-3,4′-piperidin]-1′-yl)methanone]
14 | 207 | 4.25 | – | 12.9 | CC(O)c1cc(C(F)(F)F)cn2cc(C(=O)N3CC[C@]4(Cc5ccccc5CN4)[C@H](O)C3)nc12 (single isomer, unassigned) [Example 108]
15 | 126 | 0.276 | 8.28 | – | CC(O)c1cc(C(F)(F)F)cn2cc(C(=O)N3CC[C@]4(Cc5ccccc5CN4)[C@H](O)C3)nc12 (single isomer, unassigned) [Example 109]
16 | 144 | 0.304 | 5.56 | – | COC(C)c1cc(C)c2nc(C(=O)N3CC[C@]4(Cc5ccccc5CN4)[C@H](O)C3)cn2c1 (single isomer, unassigned) [Example 122]
17 | 182 | 0.378 | 11.8 | – | COC(C)c1cc(C)c2nc(C(=O)N3CC[C@]4(Cc5ccccc5CN4)[C@H](O)C3)cn2c1 (single isomer, unassigned) [Example 123]
18 | – | 32.9 | – | 146 | COC(C)c1cnc2nc(C(=O)N3CC[C@]4(Cc5ccccc5CN4)[C@H](O)C3)cn2c1 (single isomer, unassigned) [Example 136]
19 | 251 | 1.92 | 124 | – | COC(C)c1cnc2nc(C(=O)N3CC[C@]4(Cc5ccccc5CN4)[C@H](O)C3)cn2c1 (single isomer, unassigned) [Example 137]
